Measured values reported in ChEMBL document CHEMBL1201862, “PubChem BioAssay data set” (2004).
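Assay format: 96-well plates, 48-hour exposure. GI50 is the concentration that inhibits growth by half.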 Calls of active or inactive are those of the source. No stated cut-off is given here; in the data, active = GI50 up to about 1.1 µM and inactive = higher.

Legend:
Assay in all cases: NCI-60 cell line screen, 48 h
NCI-H460 = system: NCI-H460
SK-MEL-5 = system: SK-MEL-5
NCI-H226 = system: NCI-H226
NCI-H522 = system: NCI-H522
KM12 = system: KM12
A498 = system: A498
DU-145 = system: DU-145
CCRF-CEM = system: CCRF-CEM
M14 = system: M14
HCT-116 = system: HCT-116
HCT-15 = system: HCT-15
OVCAR-8 = system: OVCAR-8
SF-268 = system: SF-268
CAKI-1 = system: CAKI-1
Malme-3M = system: Malme-3M
HOP-92 = system: HOP-92
MOLT-4 = system: MOLT-4
OVCAR-4 = system: OVCAR-4
NCI-H23 = system: NCI-H23
K562 = system: K562

Measured: GI50

CCN(CC)CCNC(=O)c1cn2c(ccc3sc4ccccc4c(=O)c32)n1
5.21 µM: HCT-15
active: NCI-H460 1.03 µM | MOLT-4 0.502 µM
inactive: SK-MEL-5 7.26 µM | NCI-H226 13.3 µM | NCI-H522 9.16 µM | KM12 12.2 µM | A498 15.3 µM | DU-145 12 µM | CCRF-CEM 2.74 µM | M14 15.1 µM | HCT-116 5.97 µM | OVCAR-8 12.3 µM | SF-268 6.93 µM | CAKI-1 10 µM | Malme-3M 11.6 µM | HOP-92 8.91 µM | OVCAR-4 7.89 µM | NCI-H23 11.2 µM | K562 6.28 µM

COc1ccc([C@H]2[C@H](C)C3=Nc4ccccc4CN32)cc1
inactive: NCI-H460 31.6 µM | SK-MEL-5 40.8 µM | NCI-H226 85.1 µM | NCI-H522 > 100 µM | KM12 42.6 µM | A498 > 100 µM | DU-145 > 100 µM | M14 42.6 µM | HCT-116 33.8 µM | OVCAR-8 71.8 µM | SF-268 98.9 µM | CAKI-1 > 100 µM | Malme-3M > 100 µM | HOP-92 56.5 µM | MOLT-4 36.8 µM | OVCAR-4 > 100 µM | NCI-H23 69.8 µM | K562 39.2 µM
76.2 µM: HCT-15

C#CCn1c(=O)c2cc(OC)c(OC)cc2n(CC#C)c1=O
> 10 µM: HCT-15
inactive: NCI-H460 > 10 µM | SK-MEL-5 > 10 µM | NCI-H226 > 10 µM | NCI-H522 > 10 µM | KM12 > 10 µM | A498 > 10 µM | DU-145 > 10 µM | CCRF-CEM > 10 µM | M14 > 10 µM | HCT-116 > 10 µM | OVCAR-8 > 10 µM | SF-268 > 10 µM | CAKI-1 > 10 µM | Malme-3M > 10 µM | HOP-92 > 10 µM | MOLT-4 > 10 µM | OVCAR-4 > 10 µM | NCI-H23 > 10 µM | K562 > 10 µM

C=C1C(=O)OC2CC1C(OC(=O)/C=C/c1ccccc1)C/C(C)=C/CC/C(C)=C/CCC2(C)O (stereo unspecified)
0.889 µM: HCT-15
active: NCI-H522 0.692 µM | CCRF-CEM 0.372 µM | MOLT-4 0.409 µM | OVCAR-4 0.82 µM | K562 0.906 µM
inactive: NCI-H460 1.36 µM | SK-MEL-5 1.85 µM | NCI-H226 1.64 µM | KM12 1.71 µM | A498 1.91 µM | DU-145 1.68 µM | M14 1.64 µM | HCT-116 1.24 µM | OVCAR-8 1.75 µM | SF-268 1.68 µM | CAKI-1 1.46 µM | Malme-3M 2 µM | HOP-92 1.52 µM | NCI-H23 2.29 µM

Cc1ccc(S(=O)(=O)N2CCN(S(=O)(=O)c3ccc(C)cc3)CCN(S(=O)(=O)c3ccc(C)cc3)Cc3cc(Br)c(Br)cc3CN(S(=O)(=O)c3ccc(C)cc3)CC2)cc1
> 100 µM: HCT-15
inactive: NCI-H460 > 100 µM | SK-MEL-5 > 100 µM | NCI-H226 46.6 µM | NCI-H522 52 µM | KM12 97.7 µM | A498 > 100 µM | DU-145 > 100 µM | CCRF-CEM > 100 µM | M14 19.1 µM | HCT-116 > 100 µM | OVCAR-8 > 100 µM | SF-268 > 100 µM | CAKI-1 > 100 µM | Malme-3M 44.9 µM | HOP-92 23.6 µM | MOLT-4 > 100 µM | OVCAR-4 44.1 µM | NCI-H23 > 100 µM | K562 > 100 µM

O=C(N/N=C/c1ccc([N+](=O)[O-])cc1)c1cccc2nc3ccccc3nc12
inactive: NCI-H460 1.5 µM | SK-MEL-5 2.07 µM | NCI-H226 > 100 µM | NCI-H522 > 100 µM | KM12 > 100 µM | A498 > 100 µM | DU-145 65 µM | CCRF-CEM > 92.5 µM | M14 > 100 µM | HCT-116 > 100 µM | OVCAR-8 > 90.8 µM | SF-268 > 58.9 µM | CAKI-1 > 100 µM | Malme-3M > 100 µM | HOP-92 > 51.9 µM | MOLT-4 > 36.8 µM | OVCAR-4 > 100 µM | NCI-H23 12.2 µM | K562 > 70.3 µM
> 55.7 µM: HCT-15

CC(=O)C1=CN=C2C(=O)N(c3ccccc3)N(C)C12C (stereo unspecified)
inactive: SK-MEL-5 > 100 µM | NCI-H226 > 100 µM | NCI-H522 > 100 µM | KM12 3.08 µM | A498 > 100 µM | DU-145 > 100 µM | CCRF-CEM > 100 µM | M14 > 100 µM | HCT-116 > 100 µM | OVCAR-8 > 100 µM | CAKI-1 > 100 µM | Malme-3M > 100 µM | HOP-92 > 100 µM | MOLT-4 > 100 µM | OVCAR-4 > 100 µM | NCI-H23 > 100 µM | K562 > 100 µM
69.7 µM: HCT-15

COC(=O)C1(SC)C2CCC3C2CCC31 (stereo unspecified)
> 100 µM: HCT-15
inactive: NCI-H460 > 100 µM | SK-MEL-5 > 100 µM | NCI-H226 > 100 µM | NCI-H522 > 100 µM | A498 > 100 µM | DU-145 > 100 µM | CCRF-CEM > 100 µM | M14 > 100 µM | HCT-116 > 100 µM | OVCAR-8 > 100 µM | SF-268 > 100 µM | CAKI-1 > 100 µM | Malme-3M > 100 µM | HOP-92 > 100 µM | MOLT-4 > 100 µM | OVCAR-4 > 100 µM | NCI-H23 > 100 µM | K562 > 100 µM

CN(C)c1ccc(/C=C2\N=C(NN)NC2=O)cc1
inactive: NCI-H460 69.8 µM | NCI-H226 78.2 µM | NCI-H522 46.1 µM | KM12 41.1 µM | A498 98.2 µM | DU-145 76.7 µM | CCRF-CEM 65.8 µM | M14 > 100 µM | HCT-116 49.8 µM | OVCAR-8 55 µM | SF-268 > 100 µM | CAKI-1 > 100 µM | Malme-3M > 100 µM | HOP-92 59.8 µM | MOLT-4 8.85 µM | OVCAR-4 79.4 µM | NCI-H23 > 100 µM | K562 10.1 µM
50.8 µM: HCT-15

COc1ccc(/N=N/c2ccc3oc(=O)c(C(=O)Nc4ccc(Cl)cc4)cc3c2)cc1
0.67 µM: HCT-15
inactive: NCI-H460 > 10 µM | SK-MEL-5 > 10 µM | NCI-H226 > 10 µM | NCI-H522 > 10 µM | KM12 4.32 µM | A498 > 10 µM | DU-145 > 10 µM | M14 > 10 µM | OVCAR-8 > 10 µM | SF-268 3.72 µM | CAKI-1 > 10 µM | Malme-3M > 10 µM | HOP-92 7.83 µM | MOLT-4 7.46 µM | OVCAR-4 > 10 µM | NCI-H23 6.38 µM

COC(=O)c1cc(C#N)[nH]c1-c1ccsc1
inactive: SK-MEL-5 > 100 µM | NCI-H226 > 100 µM | NCI-H522 87.7 µM | KM12 > 100 µM | A498 95.5 µM | DU-145 > 100 µM | CCRF-CEM 76.2 µM | M14 > 100 µM | HCT-116 > 100 µM | OVCAR-8 > 100 µM | SF-268 > 100 µM | CAKI-1 51.2 µM | Malme-3M > 100 µM | HOP-92 > 100 µM | MOLT-4 8.63 µM | OVCAR-4 > 100 µM | NCI-H23 > 100 µM | K562 53.1 µM
70.1 µM: HCT-15
